Among the data in ChEMBL document CHEMBL1165957, “Alkaloids from the bark of Guatteria hispida and their evaluation as antioxidant and antimicrobial agents” (2010) are Activity and MIC values, retold here.

Usually MIC stands for the lowest concentration found to suppress growth.

Common to all, as to format: functional
The nature of experiment [1]: Antioxidant activity assessed as trolox equivalents of peroxyl radical scavenging activity by ORAC assay. The arrangement: unit not given here.
The subject of another experiment is Kocuria rhizophila. The experiment can be described thus: Antimicrobial activity against Kocuria rhizophila ATCC 9341 by broth dilution method.
The next experiment has as its system Escherichia coli. The experiment can be described thus: Antimicrobial activity against Escherichia coli ATCC 10538 by broth dilution method. Background: Dilution methods test growth across graded concentrations, often in twofold steps.
In experiment [2] the test system is Staphylococcus epidermidis. Briefly: Antimicrobial activity against Staphylococcus epidermidis 6ep by broth dilution method.
The subject of another experiment is Pseudomonas aeruginosa. The experiment can be described thus: Antimicrobial activity against Pseudomonas aeruginosa ATCC 27853 by broth dilution method.
Experiment [3] relates to Staphylococcus aureus. The experiment can be described thus: Antimicrobial activity against Staphylococcus aureus 8- penicillinase negative by broth dilution method.
Experiment [4] has as its system Staphylococcus aureus. The experiment can be described thus: Antimicrobial activity against Staphylococcus aureus ATCC 14458 by broth dilution method.
Experiment [5] concerns Staphylococcus aureus. Briefly: Antimicrobial activity against Staphylococcus aureus 7+ penicillinase positive + by broth dilution method.
The next experiment deals with Candida tropicalis. The experiment can be described thus: Antimicrobial activity against Candida tropicalis CT by broth dilution method.
The next experiment concerns Candida parapsilosis. Briefly: Antimicrobial activity against Candida parapsilosis ATCC 22019 by broth dilution method.
The subject of experiment [6] is Candida dubliniensis. Briefly: Antimicrobial activity against Candida dubliniensis ATCC 778157 by broth dilution method.
Experiment [7] deals with Candida dubliniensis. Briefly: Antimicrobial activity against Candida dubliniensis ATCC 777 by broth dilution method.
In another experiment the test system is Candida albicans. The experiment can be described thus: Antimicrobial activity against Candida albicans ATCC 10231 by broth dilution method.
In a further experiment the test system is Nakaseomyces glabratus. Briefly: Antimicrobial activity against Candida glabrata ATCC 30070 by broth dilution method.

Converted amounts (≈) assume the structure as drawn. The source made the active and inactive calls. The calls are words filed in the database; no cut-off is given here.

As to `COc1cc2c(cc1O)C[C@H]1c3cc(O)c(OC)cc3CCN1C2`, the Activity in experiment [1] stood at 1.4.
Regarding `COc1cc2c(cc1O)C[C@H]1c3cc(OC)c(O)cc3CCN1C2`, the Activity in experiment [1] came to 1.67.
As for `COc1cc2c3c(c1OC)-c1ccccc1CC3NCC2` (configuration not stated), the Activity in experiment [1] was determined as 0.27.
`COc1ccc2c(c1)C(=O)c1nccc3c(O)c(OC)c(OC)c-2c13`: the Activity in experiment [1] is 1.62.
Same read-out and setting: to `O=C(O)/C=C/c1ccc(O)c(O)c1` belongs 2.95; to `O=c1c(O)c(-c2ccc(O)c(O)c2)oc2cc(O)cc(O)c12`, 5.62; to `O=c1c(O[C@@H]2O[C@H](CO)[C@@H](O)[C@H](O)[C@H]2O)c(-c2ccc(O)c(O)c2)oc2cc(O)cc(O)c12`, 5.25.
Regarding `O=C(N[C@H](CO)[C@H](O)c1ccc([N+](=O)[O-])cc1)C(Cl)Cl` [CHLORAMPHENICOL], the MIC in the experiment on Kocuria rhizophila turned out to be 50 µg/mL (≈ 155 µM); in the experiment on Escherichia coli, 50 µg/mL (≈ 155 µM); in [2], 50 µg/mL (≈ 155 µM); in the experiment on Pseudomonas aeruginosa it was 850 µg/mL (≈ 2630 µM); with Staphylococcus aureus [3], 25 µg/mL (≈ 77.4 µM); with Staphylococcus aureus [4], 25 µg/mL (≈ 77.4 µM). Also, the minimum inhibitory concentration (MIC) with Staphylococcus aureus [5] came out at 25 µg/mL.
As for `COc1c(OC)c2c3c(nccc3c1OC)C(=O)c1ccccc1-2` [HOMOMOSCHATOLINE], the MIC result in the experiment on Kocuria rhizophila, with Candida tropicalis, with Candida parapsilosis, with Escherichia coli, in the experiment on Candida albicans and in the experiment with Pseudomonas aeruginosa was “inactive” in each case. The MIC result in the experiment with Staphylococcus aureus [3], in the experiment with Staphylococcus aureus [4], in the experiment on Nakaseomyces glabratus and with Staphylococcus aureus [5] was “inactive” in each case. The values for the MIC (in the experiment with Candida dubliniensis [6]; in [2]; in the experiment with Candida dubliniensis [7]) were 25 µg/mL (≈ 77.8 µM), 25 µg/mL (≈ 77.8 µM) and 12.5 µg/mL (≈ 38.9 µM), respectively. In addition, the Activity in experiment [1] was determined as 0.5.
Consider `CC(=O)N1CCN(c2ccc(OCC3COC(Cn4ccnc4)(c4ccc(Cl)cc4Cl)O3)cc2)CC1` (configuration not stated) [KETOCONAZOLE], for which the MIC in the experiment with Candida tropicalis, with Candida parapsilosis (Lodderomyces parapsilosis), in the experiment with Candida dubliniensis [6], against Candida dubliniensis [7], in the experiment with Candida albicans and with Nakaseomyces glabratus was 12.5 µg/mL (≈ 23.5 µM) in each case.
Regarding `O=C1c2ccccc2-c2c3c(cc4ccnc1c24)OCO3` [LIRIODENINE], the MIC entry in the experiment with Kocuria rhizophila, in the experiment with Candida tropicalis, with Candida parapsilosis, with Escherichia coli, in the experiment with Candida albicans and with Pseudomonas aeruginosa was “inactive” in each case. Besides, the MIC result with Staphylococcus aureus [3], in the experiment on Staphylococcus aureus [4], in the experiment on Nakaseomyces glabratus and in the experiment with Staphylococcus aureus [5] was “inactive” in each case. The MIC worked out at 100 µg/mL (≈ 363 µM) in the experiment with Candida dubliniensis [6], 50 µg/mL (≈ 182 µM) in experiment [2] and 50 µg/mL (≈ 182 µM) against Candida dubliniensis [7]. Also, the Activity in experiment [1] is 0.3.
Regarding `COc1cc2ccnc3c2c(c1OC)-c1ccccc1C3=O` [LYSICAMINE], the MIC result with Kocuria rhizophila, in the experiment on Candida tropicalis, in the experiment with Candida parapsilosis, in the experiment on Escherichia coli, in the experiment with Candida albicans and with Pseudomonas aeruginosa was “inactive” each time. Also, the MIC entry with Staphylococcus aureus [3], in the experiment with Staphylococcus aureus [4], with Nakaseomyces glabratus and in the experiment with Staphylococcus aureus [5] was “inactive” each time. The MIC came out at 100 µg/mL (≈ 343 µM) against Candida dubliniensis [6], 50 µg/mL (≈ 172 µM) in experiment [2] and 100 µg/mL (≈ 343 µM) against Candida dubliniensis [7]. In addition, the Activity in [1] was 0.86.
